Assay [1] addresses human CB1 receptor (hCB1) (Homo sapiens, UniProt P21554). Nature of the assay: cAMP assay at human CB1 receptor. Type of assay: cell-based. The conditions noted are these: hCB1R; maximum measurable range 30 μM; read-out: EC50 (Potency at Human CB1 determined by cAMP Assay). The procedure: The ability of each of the compounds to act as agonists or inverse agonists at human CB2 and CB1 receptors (hCB2, hCB1, respectively) and at the rat CB2 receptor (rCB2) was determined by measuring changes in intracellular cyclic AMP (cAMP) levels as described in U.S. Pat. No. 7,517,874.
TR-FRET was measured using a 330-380 nm excitation filter, 615 nm and 665 nm emission filters, dichroic minor 380 nm and Z=10 mm. cAMP concentrations in each well were back-calculated from a cAMP standard curve run concurrently during each assay. Each plate contained 16 wells of forskolin stimulated cells and 16 wells of forskolin plus 1 μM CP55,940-treated cells. Concentrations of cAMP were expressed as a percent of the difference of these two groups of wells. Concentration-response data including EC50 (the concentration of compound producing 50% of the maximal response) and intrinsic activity (the percent maximal activation compared to full activation by CP55, 940) were determined using a four-parameter non-linear regression algorithm (CambridgeSoft Bioassay).

In assay [2] the target is human CB2 receptor (hCB2) (Homo sapiens, UniProt P34972). Nature of the assay: cAMP assay at human CB2 receptor. Type of assay: cell-based. The conditions noted are these: hCB2R, maximum measurable range 30 μM. The procedure: TR-FRET was measured using a 330-380 nm excitation filter, 615 nm and 665 nm emission filters, dichroic minor 380 nm and Z=10 mm. cAMP concentrations in each well were back-calculated from a cAMP standard curve run concurrently during each assay. Each plate contained 16 wells of forskolin stimulated cells and 16 wells of forskolin plus 1 μM CP55,940-treated cells. Concentrations of cAMP were expressed as a percent of the difference of these two groups of wells.
Chain of human CB2 receptor (hCB2) (P34972 whole entry): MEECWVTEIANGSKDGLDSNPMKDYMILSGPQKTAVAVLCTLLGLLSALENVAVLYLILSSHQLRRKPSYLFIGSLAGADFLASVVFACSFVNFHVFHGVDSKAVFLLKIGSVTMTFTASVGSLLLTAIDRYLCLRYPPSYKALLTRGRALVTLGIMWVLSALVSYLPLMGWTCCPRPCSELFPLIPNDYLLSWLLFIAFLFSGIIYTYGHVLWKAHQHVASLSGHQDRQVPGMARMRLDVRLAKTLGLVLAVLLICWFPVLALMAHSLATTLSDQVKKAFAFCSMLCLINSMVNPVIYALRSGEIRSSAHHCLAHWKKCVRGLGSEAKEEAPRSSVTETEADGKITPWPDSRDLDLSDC

Setting [3] is: read-out: EC50 (Potency at Human CB2 determined by cAMP Assay).
The mark [4] stands for this setting: EC50 (Potency at Human CB2 determined by cAMP Assay).

Where two headings read alike, the source gives them in different places.

Chain of human CB1 receptor (hCB1) (P21554 whole entry): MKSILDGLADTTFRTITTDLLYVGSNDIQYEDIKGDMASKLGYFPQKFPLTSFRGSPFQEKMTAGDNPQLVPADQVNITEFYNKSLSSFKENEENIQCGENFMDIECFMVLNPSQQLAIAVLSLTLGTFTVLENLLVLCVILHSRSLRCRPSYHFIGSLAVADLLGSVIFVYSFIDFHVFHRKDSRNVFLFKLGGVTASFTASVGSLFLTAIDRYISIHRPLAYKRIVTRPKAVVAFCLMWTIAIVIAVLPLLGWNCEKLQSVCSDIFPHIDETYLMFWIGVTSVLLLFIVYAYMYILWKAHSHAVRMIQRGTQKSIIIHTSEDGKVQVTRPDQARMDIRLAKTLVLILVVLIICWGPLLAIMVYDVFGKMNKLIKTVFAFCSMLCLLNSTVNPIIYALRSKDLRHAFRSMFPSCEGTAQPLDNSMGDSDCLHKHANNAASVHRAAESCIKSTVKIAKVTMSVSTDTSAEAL

With `CN1CCc2c(c(-c3cc(F)c(F)cc3F)nn2C(=O)N[C@H](C(=O)NCCC(N)=O)C(C)(C)C)C1` [Compound 73, (S)—N-(1-(3-amino-3-oxopropylamino)-3,3-dimethyl-1-oxobutan-2-yl)-5-methyl-3-(2,4,5-trifluorophenyl)-4,5,6,7-tetrahydro-1H-pyrazolo[4,3-c]pyridine-1-carboxamide], the values for the EC50 in assay [1] and in assay [2] (setting [3]) were below 1000 nM and above 1000 nM, respectively.
As for `CNC(=O)[C@@H](NC(=O)n1nc(C(C)(C)C)c2c1CCN(C)C2)C(C)(C)C` [Compound 44, (S)-3-tert-butyl-N-(3,3-dimethyl-1-(methylamino)-1-oxo-butan-2-yl)-5-methyl-4,5,6,7-tetrahydro-1H-pyrazolo[4,3-c]pyridine-1-carboxamide], the EC50 is above 1000 nM in assay [1] and below 1000 nM in assay [2] (setting [4]).
On the same counts, the results for `CC(C)(C)[C@H](NC(=O)n1nc(-c2cc(F)c(F)cc2F)c2c1COCC2)C(=O)NCCO` [Compound 97, (S)—N-(1-(2-hydroxyethylamino)-3,3-dimethyl-1-oxobutan-2-yl)-3-(2,4,5-trifluorophenyl)-4,5-dihydropyrano[3,4-c]pyrazole-1(7H)-carboxamide] are below 1000 nM and below 1000 nM.
`CNC(=O)[C@@H](NC(=O)n1nc(-c2ccc(F)c(F)c2)c2c1CCCN2C)C(C)(C)C` [Compound 62, (S)-3-(3,4-difluorophenyl)-N-(3,3-dimethyl-1-(methylamino)-1-oxobutan-2-yl)-4-methyl-4,5,6,7-tetrahydro-1H-pyrazolo[4,3-b]pyridine-1-carboxamide]: the EC50 in assay [1] and in assay [2] (setting [4]) was below 1000 nM each time.
Turning to `CC(C)(C)[C@@H](CO)NC(=O)n1nc(-c2ccc(F)c(F)c2)c2c1CCCC2` [Compound 51, (S)-3-(3,4-difluorophenyl)-N-(1-hydroxy-3,3-dimethylbutan-2-yl)-4,5,6,7-tetrahydro-1H-indazole-1-carboxamide], the EC50 in assay [1] and in assay [2] (setting [4]) was below 1000 nM in each case.
As for `CN1CCc2c(c(-c3cc(F)c(F)cc3F)nn2C(=O)N[C@@H](CO)c2ccccc2)C1` [Compound 70, (R)—N-(2-hydroxy-1-phenylethyl)-5-methyl-3-(2,4,5-trifluorophenyl)-4,5,6,7-tetrahydro-1H-pyrazolo[4,3-c]pyridine-1-carboxamide], the EC50 was below 1000 nM in assay [1] and above 1000 nM in assay [2] (setting [3]).
On to `CCN1CCc2c(c(-c3cc(F)ccc3F)nn2C(=O)N[C@H](C(=O)NC)C(C)(C)C)C1` [Compound 65, (S)-3-(2,5-difluorophenyl)-N-(3,3-dimethyl-1-(methylamino)-1-oxobutan-2-yl)-5-ethyl-4,5,6,7-tetrahydro-1H-pyrazolo[4,3-c]pyridine-1-carboxamide], for which the EC50 in assay [1] and in assay [2] (setting [4]) was below 1000 nM each time.
As for `CNC(=O)[C@@H](NC(=O)n1nc(-c2ccc(F)c(F)c2)c2c1CCC(NC)C2)C(C)(C)C` (stereo partly drawn) [Compound 68, 3-(3,4-difluorophenyl)-N—((S)-3,3-dimethyl-1-(methylamino)-1-oxobutan-2-yl)-5-(methylamino)-4,5,6,7-tetrahydro-1H-indazole-1-carboxamide], the EC50 in assay [1] and in assay [2] (setting [4]) was below 1000 nM in each case.
With `CCOC(=O)N1CCN(C(=O)[C@@H](NC(=O)n2nc(-c3cc(F)c(F)cc3F)c3c2CCN(C)C3)C(C)(C)C)CC1` [Compound 77, (S)-ethyl 4-(3,3-dimethyl-2-(5-methyl-3-(2,4,5-trifluorophenyl)-4,5,6,7-tetrahydro-1H-pyrazolo[4,3-c]pyridine-1-carboxamido)butanoyl)piperazine-1-carboxylate], the results for the EC50 in assay [1] and in assay [2] (setting [3]) were below 1000 nM and above 1000 nM, respectively.
For `CC(C)(C)[C@H](NC(=O)n1nc(-c2cc(F)c(F)cc2F)c2c1CCOC2)C(=O)N1CC[C@H](O)C1` [Compound 31, N—((S)-1-((S)-3-hydroxypyrrolidin-1-yl)-3,3-dimethyl-1-oxobutan-2-yl)-3-(2,4,5-trifluorophenyl)-6,7-dihydropyrano[4,3-c]pyrazole-1(4H)-carboxamide], the concentration for a half-maximal effect (EC50) in assay [1] and in assay [2] (setting [3]) was below 1000 nM each time.
With `CNC(=O)[C@@H](NC(=O)n1nc(-c2cc(F)c(F)cc2F)c2c1CN(C)CC2)C(C)(C)C` [Compound 38, (S)—N-(3,3-dimethyl-1-(methylamino)-1-oxobutan-2-yl)-6-methyl-3-(2,4,5-trifluorophenyl)-4,5,6,7-tetrahydro-1H-pyrazolo[3,4-c]pyridine-1-carboxamide], the EC50 in assay [1] and in assay [2] (setting [4]) was below 1000 nM throughout.
In the case of `CN1CCc2c(c(-c3cc(F)ccc3F)nn2C(=O)N[C@H](C(=O)O)C(C)(C)C)C1` [Compound 81, (S)-2-(3-(2,5-difluorophenyl)-5-methyl-4,5,6,7-tetrahydro-1H-pyrazolo[4,3-c]pyridine-1-carboxamido)-3,3-dimethylbutanoic acid], the EC50 in assay [1] and in assay [2] (setting [3]) was above 30000 nM throughout.
For `CNC(=O)[C@@H](NC(=O)n1nc(-c2cc(F)c(F)cc2F)c2c1CCOC2)C(C)(C)C` [Compound 30, (S)—N-(3,3-dimethyl-1-(methylamino)-1-oxobutan-2-yl)-3-(2,4,5-trifluorophenyl)-6,7-dihydropyrano[4,3-c]pyrazole-1(4H)-carboxamide], the EC50 in assay [1] and in assay [2] (setting [4]) was below 1000 nM throughout.
`CN1CCc2c(c(-c3cc(F)ccc3F)nn2C(=O)N[C@H](CO)C(C)(C)C)C1` [Compound 66, (S)-3-(2,5-difluorophenyl)-N-(1-hydroxy-3,3-dimethylbutan-2-yl)-5-methyl-4,5,6,7-tetrahydro-1H-pyrazolo[4,3-c]pyridine-1-carboxamide]: the EC50 was below 1000 nM in assay [1] and above 1000 nM in assay [2] (setting [3]).
For `CC(C)(C)[C@@H](CO)NC(=O)n1nc(-c2cc(F)c(F)cc2F)c2c1CCOC2` [Compound 33, (S)—N-(1-hydroxy-3,3-dimethylbutan-2-yl)-3-(2,4,5-trifluorophenyl)-6,7-dihydropyrano[4,3-c]pyrazole-1(4H)-carboxamide], the EC50 in assay [1] and in assay [2] (setting [4]) was below 1000 nM each time.

The record behind these values is US7741350B1 (Cara Therapeutics, Inc., priority 2009, dated 2010).
